Test results: publication PMC11022538, “Antibacterial insights into alternariol and its derivative alternariol monomethyl ether produced by a marine fungus” (Applied and Environmental Microbiology, 2024)

Key:
Test in all cases: plasmid pCT74 unwinding, agarose gel
Assay type in all cases: biochemical
Conditions in all cases: AOH 4 µg/mL (Fig 6; 1 µg in a 20 µL reaction), 5 min pre-incubation, 37°C, Mg2+; qualitative inhibition; no ATP listed
[1] = molecular target: T1, Top1 (Staphylococcus aureus, UniProt P20831)
T1 construct: gene gyrA; full gene in pET28a, His-tagged, E. coli BL21(DE3), Ni column; tag kept
T1 sequence (P20831 whole entry): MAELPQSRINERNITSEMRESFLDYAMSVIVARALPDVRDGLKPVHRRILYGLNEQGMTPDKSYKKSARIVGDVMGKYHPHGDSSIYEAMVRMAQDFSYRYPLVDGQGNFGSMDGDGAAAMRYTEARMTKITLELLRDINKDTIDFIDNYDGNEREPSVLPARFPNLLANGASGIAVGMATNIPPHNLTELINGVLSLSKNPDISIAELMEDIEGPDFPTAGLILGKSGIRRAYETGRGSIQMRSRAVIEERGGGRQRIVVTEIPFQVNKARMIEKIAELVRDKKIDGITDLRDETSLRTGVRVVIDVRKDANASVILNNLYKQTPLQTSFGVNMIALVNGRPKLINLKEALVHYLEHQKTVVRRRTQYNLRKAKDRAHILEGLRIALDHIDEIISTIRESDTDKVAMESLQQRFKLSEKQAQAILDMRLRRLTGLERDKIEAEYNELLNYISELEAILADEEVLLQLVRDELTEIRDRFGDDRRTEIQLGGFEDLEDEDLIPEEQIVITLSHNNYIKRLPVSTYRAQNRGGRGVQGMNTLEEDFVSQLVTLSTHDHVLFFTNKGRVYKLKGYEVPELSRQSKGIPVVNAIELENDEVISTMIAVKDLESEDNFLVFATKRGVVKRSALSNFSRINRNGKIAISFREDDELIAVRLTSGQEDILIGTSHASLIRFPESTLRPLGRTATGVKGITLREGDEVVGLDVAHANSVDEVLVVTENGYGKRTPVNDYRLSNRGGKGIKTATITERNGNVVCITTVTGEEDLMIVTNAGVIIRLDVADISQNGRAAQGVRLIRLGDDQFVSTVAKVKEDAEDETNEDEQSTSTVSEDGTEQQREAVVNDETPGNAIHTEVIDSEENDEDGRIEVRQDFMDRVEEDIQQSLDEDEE

[2] = molecular target: T2, Top3 (Staphylococcus aureus, UniProt Q5HGI2)
T2 construct: gene topA; full gene in pET28a, His-tagged, E. coli BL21(DE3), Ni column; tag kept
T2 sequence (Q5HGI2 whole entry): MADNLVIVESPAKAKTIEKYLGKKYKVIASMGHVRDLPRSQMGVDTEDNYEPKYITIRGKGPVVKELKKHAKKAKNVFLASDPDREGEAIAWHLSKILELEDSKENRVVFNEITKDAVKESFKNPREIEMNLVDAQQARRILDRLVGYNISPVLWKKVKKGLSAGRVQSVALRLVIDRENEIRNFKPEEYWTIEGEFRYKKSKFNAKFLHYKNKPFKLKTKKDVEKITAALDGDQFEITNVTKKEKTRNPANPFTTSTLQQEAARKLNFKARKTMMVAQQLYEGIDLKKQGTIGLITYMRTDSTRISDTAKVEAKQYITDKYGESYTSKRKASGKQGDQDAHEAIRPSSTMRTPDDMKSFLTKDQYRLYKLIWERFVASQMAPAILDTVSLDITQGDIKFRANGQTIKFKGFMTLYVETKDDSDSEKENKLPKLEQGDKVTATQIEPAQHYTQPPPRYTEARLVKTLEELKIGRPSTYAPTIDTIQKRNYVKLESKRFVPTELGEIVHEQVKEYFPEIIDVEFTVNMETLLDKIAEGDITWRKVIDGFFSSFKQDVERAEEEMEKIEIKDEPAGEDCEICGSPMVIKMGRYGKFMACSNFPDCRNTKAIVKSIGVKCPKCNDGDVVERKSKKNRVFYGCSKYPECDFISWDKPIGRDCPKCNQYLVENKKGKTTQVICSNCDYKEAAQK

[3] = molecular target: T3, Topc (Staphylococcus aureus, UniProt P0A0K8+P20831)
T3 construct: gene gyrA; Top1 and Top2 combined; each in pET28a, His-tagged, E. coli BL21(DE3)
T3 sequence (P20831 whole entry): as the sequence (P20831 whole entry) above
T3 sequence (P0A0K8 2-644): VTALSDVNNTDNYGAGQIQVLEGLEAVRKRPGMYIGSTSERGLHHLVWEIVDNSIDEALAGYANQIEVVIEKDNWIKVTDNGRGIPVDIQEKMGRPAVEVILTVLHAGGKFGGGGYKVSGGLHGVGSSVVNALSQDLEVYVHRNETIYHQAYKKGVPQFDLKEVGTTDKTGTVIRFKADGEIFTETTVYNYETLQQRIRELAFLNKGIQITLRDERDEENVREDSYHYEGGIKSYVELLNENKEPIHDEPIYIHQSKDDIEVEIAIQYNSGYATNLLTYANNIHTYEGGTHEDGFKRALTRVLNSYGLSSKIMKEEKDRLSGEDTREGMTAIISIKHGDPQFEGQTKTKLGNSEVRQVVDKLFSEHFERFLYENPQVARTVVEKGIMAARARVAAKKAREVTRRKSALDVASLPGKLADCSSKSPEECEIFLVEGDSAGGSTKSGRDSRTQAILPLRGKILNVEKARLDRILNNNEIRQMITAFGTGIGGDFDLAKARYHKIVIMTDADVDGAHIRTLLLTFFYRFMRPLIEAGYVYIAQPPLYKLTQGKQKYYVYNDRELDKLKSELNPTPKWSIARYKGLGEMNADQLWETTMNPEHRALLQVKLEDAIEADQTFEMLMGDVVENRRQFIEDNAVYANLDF

[4] = molecular target: T4, Top4 (Staphylococcus aureus, UniProt Q99S17)
T4 construct: gene topB; full gene in pET28a, His-tagged, E. coli BL21(DE3), Ni column; tag kept
T4 sequence (Q99S17 whole entry): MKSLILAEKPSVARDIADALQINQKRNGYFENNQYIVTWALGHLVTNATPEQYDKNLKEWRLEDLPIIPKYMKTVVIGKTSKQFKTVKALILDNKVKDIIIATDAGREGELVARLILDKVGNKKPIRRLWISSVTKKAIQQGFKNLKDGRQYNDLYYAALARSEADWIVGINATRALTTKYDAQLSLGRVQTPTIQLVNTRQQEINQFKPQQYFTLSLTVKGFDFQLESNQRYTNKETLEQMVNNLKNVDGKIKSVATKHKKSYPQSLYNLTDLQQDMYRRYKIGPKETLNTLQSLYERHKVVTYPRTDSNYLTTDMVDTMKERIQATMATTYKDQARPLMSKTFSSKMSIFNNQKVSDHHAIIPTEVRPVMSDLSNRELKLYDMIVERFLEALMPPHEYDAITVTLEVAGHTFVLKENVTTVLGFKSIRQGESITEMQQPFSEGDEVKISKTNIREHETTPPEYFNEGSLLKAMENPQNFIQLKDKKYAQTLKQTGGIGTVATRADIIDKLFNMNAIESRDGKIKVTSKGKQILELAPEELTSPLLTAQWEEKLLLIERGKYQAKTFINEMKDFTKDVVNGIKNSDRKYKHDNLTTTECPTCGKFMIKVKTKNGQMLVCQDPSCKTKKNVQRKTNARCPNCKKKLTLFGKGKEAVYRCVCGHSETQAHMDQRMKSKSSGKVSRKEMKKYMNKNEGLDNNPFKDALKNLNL

Cc1cc(O)cc2oc(=O)c3c(O)cc(O)cc3c12 [compound 1, alternariol]
plasmid pCT74 unwinding, agarose gel [1]: AOH effectively blocked the unwinding activities of the above four topoisomerases
plasmid pCT74 unwinding, agarose gel [2]: AOH effectively blocked the unwinding activities of the above four topoisomerases
plasmid pCT74 unwinding, agarose gel [3]: AOH effectively blocked the unwinding activities of the above four topoisomerases
plasmid pCT74 unwinding, agarose gel [4]: AOH effectively blocked the unwinding activities of the above four topoisomerases
